Values of other authors in patent US20040002514A1, “Topical use of hydroxyeicosatetraenoic acid compounds to treat psoriasis” (Alcon, Inc., priority 2002, published 2004).

What was measured:
[1] = tested on: leukotriene B4 production or its activity
[2] = tested on: colitis; details: in vivo
[3] = tested on: IL-8 production by human bone marrow stromal cells; details: 1 μM to 0.1 nM
[4] = tested on: IL-6 synthesis by bone marrow stromal cells
[5] = tested on: psoriatic skin lesions

CCCCC[C@H](O)/C=C/C=C\C/C=C\C/C=C\CCCC(=O)O [15-HETE, 15-Hydroxyeicosatetraenoic acid]
effect on leukotriene B4 production or its activity [1]: inhibitory effects | anti-inflammatory properties in colitis [2]: minor anti-inflammatory properties | effect on spontaneous and serum-induced production of IL-8 [3]: no effect | effect on spontaneous, serum- and cytokine-induced IL-6 synthesis [4]: no effect | improvement of psoriasis ([5]; injected into psoriatic skin lesions): can improve psoriasis | amount required to cause a clinical effect ([5]; intralesional injection, 0.1 ml of 10 lmol/L): 300 ng
